Measurements reported in patent US12201649B2, “Pharmaceutical composition comprising oxidizable biphenol and manganese porphyrin, and method of using the same” (Villanova University, priority 2021, dated 2025).
Read-outs that look alike come from different tables or passages of the source.

Experiments:
[1] = test system: MDA-MB-231 breast cancer cells; settings: 24 hours; for efficacy at killing breast cancer cells compared with MnTM4PyP: when combined with tBHQ
Jurkat cells [2] = test: apoptosis (Annexin-PE) and necrosis (RedDot 2) by flow cytometry, 4 hours; type: cell-based, human; settings: for effect on Jurkat cells (alive, apoptotic, necrotic): 4 hours
Procedure: Referring to FIGS. 4, 5, 6, 8, 12 and 15, cells were treated with the indicated compounds or vehicle for 4 hours in RPMI medium with 10% fetal bovine serum (FBS). RPMI medium, also known as RPMI 1640, is a growth medium used in cell culture. In these and other figures, “vehicle” represents when a treatment compound is omitted and replaced with the vehicle that the compound is dissolved in. Thus, when a MnP is omitted, water is added in its place. When an oxidizable phenol is omitted, DMSO is added for a resulting final concentration in the cell media of 0.05% DMSO. Apoptosis was measured using Annexin-PE, and necrosis was measured with RedDot 2. Fluorescence was read on an Accuri C6 flow cytometer with excitation from a 488 nm laser, and FL2 and FL4 filters were used for Annexin-PE and RedDot2, respectively. 10,000 events were acquired. Flow cytometry data was analyzed using Flowlogic software from Inivai Technologies of Australia. […] Percentage of alive, apoptotic, or necrotic cells was determined and graphed as the average±the standard deviation.
The combination of tBHQ and MnTMPyP is toxic to Jurkat cells, a CD4+ T-cell leukemic cell line. […] Cells that were alive, apoptotic or necrotic were determined using flow cytometry. Two specimens (biological duplicates) were measured for each sample.
Cells that were alive, apoptotic or necrotic were determined using flow cytometry, with n=2 (biological duplicates).
Referring to FIG. 12, unlike tBHQ, dtBHQ has no toxicity to Jurkat cells in combination with MnTMPyP. […] Cells that were alive, apoptotic or necrotic were determined using flow cytometry, with n=2 (biological duplicates).
Referring to FIG. 15, Jurkat cell death upon exposure to MNTE-2-PyP and MnTNBuOE-2-PyP (labelled as Mn2E and Mn2BuOE, respectively, in FIG. 15) are compared with that of exposure to Mn4M. […] Cells that were alive, apoptotic or necrotic were determined using flow cytometry, with n=2 (technical duplicates).
Jurkat cells were treated with 5 mM ascorbic acid or 5 μM tBHQ with or without 12 μM MnTMPyP for 4 h. Apoptosis was measured using Annexin-PE, necrosis with RedDot 2. […]

NALM6 cells = test: as above; type: cell-based; settings: tBHQ or 12 μM MnTMPyP alone
Jurkat cells [3] = test: cells; settings: Homo sapiens, 24 h
Procedure: Referring to FIG. 16, Jurkat cells were treated with the indicated compounds for 24 hours in RPMI with 2% FBS. Live cells were measured using the CellTiter-Fluor dye, which enters living cells and is cleaved by intracellular proteases to release the fluorescent coumarin molecule. Fluorescence was measured on a ClarioStar Plus plate reader in a 96-well plate format with excitation at 390 nm and emission capture at 505 nm. […] Data are graphed as the average±the standard error, along with the fit.
The relative number of viable cells in a sample was determined using CellTiter-Fluor dye with relative fluorescence units (RFU). […] The LC50 value for a compound is the concentration required to kill half of the cells tested after a specified test duration such as 24 hours.

[4] = test system: MDA-MB-231 breast cancer cells; test: cells; settings: Homo sapiens, MDA-MB-231, 24 h
[5] = test system: PC3 prostate cancer cells; test: cells; settings: 24 h
[6] = read-out: LC50 for tBHQ in the presence of Mn2BuOE

In the case of `CC[n+]1ccccc1-c1c2nc(c(-c3cccc[n+]3CC)c3ccc([n-]3)c(-c3cccc[n+]3CC)c3nc(c(-c4cccc[n+]4CC)c4ccc1[n-]4)C=C3)C=C2.[Mn+3]` [Mn2TE2], the “efficacy at killing breast cancer cells compared with MnTM4PyP” value [1] is reported as “higher efficacy”.
In the case of `CC(C)(C)c1cc(O)ccc1O` [tBHQ, tert-butylhydroquinone], the “effect on Jurkat cells (alive, apoptotic, necrotic)” value (Jurkat cells [2]; 5 μM to 20 μM tBHQ alone) is reported as “largely unaffected”, the “toxicity to NALM6 cells, compound individually” value (NALM6 cells) is reported as “low toxicity” and the “toxicity of tBHQ alone” value ([1]; at 100 μM tBHQ) is reported as “no toxicity observed”. For the same compound, the CC50 (Jurkat cells [3]; read-out: LC50 for tBHQ alone) was 80 ± 30 µM, the CC50 (Jurkat cells [3]; [6]) was 1.29 ± 0.04 µM and the CC50 ([4]; read-out: LC50 for tBHQ alone) was > 100 µM. The CC50 ([4]; read-out: LC50 for tBHQ in the presence of MnTMPyP) was 20 µM, the CC50 ([5]; read-out: LC50 for tBHQ alone) was > 100 µM and the CC50 [5, 6] was 16 ± 7 µM.
In the case of `C[n+]1ccc(-c2c3nc(c(-c4cc[n+](C)cc4)c4ccc([nH]4)c(-c4cc[n+](C)cc4)c4nc(c(-c5cc[n+](C)cc5)c5ccc2[nH]5)C=C4)C=C3)cc1.[Mn+3]` [MnTMPyP, Mn(III)tetrakis(1-methyl-4-pyridyl)porphyrin], the “effect on Jurkat cells (alive, apoptotic, necrotic)” value (Jurkat cells [2]; 12 μM MnTMPyP alone) is reported as “largely unaffected” and the “toxicity to NALM6 cells, compound individually” value (NALM6 cells) is reported as “low toxicity”.
In the case of `CCCCOCC[n+]1ccccc1-c1c2nc(c(-c3cccc[n+]3CCOCCCC)c3ccc([nH]3)c(-c3cccc[n+]3CCOCCCC)c3nc(c(-c4cccc[n+]4CCOCCCC)c4ccc1[nH]4)C=C3)C=C2.[Mn+3]` [Mn2BuOE], the “effectiveness at 1.2 μM versus 12 μM” value (Jurkat cells [2]; in combination with 5 μM tBHQ, four hours) is reported as “almost as effective at 1.2 μM as it was at 12 μM”, the “efficacy at killing breast cancer cells compared with MnTM4PyP” value [1] is reported as “higher efficacy” and the “concentration at which Mn2BuOE is active” value ([1]; with 20 μM tBHQ) is reported as “less than 1 μM”. For the same compound, the “toxicity of Mn2BuOE alone” value ([1]; without tBHQ, tested concentrations) was “not toxic at tested concentrations”.
